In patent publication US10787423B2, “Piperazine and piperidine derivatives, their synthesis and use thereof in inhibiting VDAC oligomerization, apoptosis and mitochondria dysfunction” (THE NATIONAL INSTITUTE FOR BIOTECHNOLOGY IN THE NEGEV LTD., priority 2015, dated 2020):

Assays:
[1] = system: HeLa cells; assay: Selenite-induced cell death in HeLa cells, PI staining and flow cytometry; format: cell-based; details: 22 h with selenite 8 μM and increasing concentrations
Experimental: Cells, e.g. HeLa cells (2×10^5), untreated or treated with apoptosis-inducing reagents, were analyzed for apoptotic cell death using PI, annexin V-FITC and flow cytometer analysis. Cells were collected (1500×g for 10 min), washed, and resuspended in 200 μl binding buffer (10 mM HEPES/NaOH, pH 7.4, 140 mM NaCl, and 2.5 mM CaCl2). Annexin V-FITC was added according to the recommended Protocol (Enzo Life Sciences, Switzerland), and the cells were incubated in the dark for 15 min. Cells were then washed with binding buffer and resuspended in 200 μl binding buffer, to which PI was added immediately before flow cytometry analysis. At least 10,000 events were collected, recorded on a dot plot, and analyzed by the FACSCalibur™ flow cytometer software (BD Biosciences, Franklin Lakes, N.J.).
HeLa cells were incubated with varying concentrations (2-20 μM) of racemic compound of Formula 1 (VBIT-4) and of the enantiomers of compound of Formula 1 (VBIT-4-1 and VBIT-4-2) for 1 hour, and then with or without selenite (25 μM, 3 hours). Cells were harvested and assayed for apoptotic cell death, using PI staining and FACS analysis. The results shown in the FIG. 14b correspond to means±SD (n=3).
Cells (2.5 mg/ml) were washed with and resuspended in PBS, pH 8.3 and incubated with membrane-permeable cross-linker EGS (250 μM) at 30° C. for 15 min and then subjected to SDS-PAGE and immunoblotting using anti-VDAC1 antibodies. Several anti-VDAC1 antibody-labeled protein bands were obtained upon exposure to the apoptosis stimuli that are correspond to VDAC1 dimers, trimers, tetramers and multimers. Cell death as induced by selenite and inhibited by the compound of Formula 3 (VBIT-12) or compound of Formula 11 (DIV00781) is shown (FIG. 21B), with closed circles corresponding to the compound of Formula 3 and open circles corresponding to the compound of Formula 11. Cell death was analyzed using propidium iodide (PI) staining and flow cytometry.

[2] = target: T1, rVDAC1-GFP2 / rVDAC1-Rluc in T-REx-293 cells (Rattus norvegicus, UniProt Q9Z2L0); assay: BRET2 assay of VDAC1 oligomerization induced by apoptosis inducers (Method A); format: cell-based; details: test compound 10 μM, 1 h pre-incubation; for BRET2, % of inhibition, As2O3: As2O3 60 μM (3 h); for BRET2, % of inhibition, STS: STS 1 μM (3 h); for BRET2, % of inhibition, Selenite: selenite 30 μM (3 h)
T1 construct: The rVDAC1 gene was cloned into BamHI and HindIII sites of the BRET2 plasmids (N2 variants); expressed in transfected cells; host or cells: T-REx-293 cells stably expressing hVDAC1-shRNA (T-REx-pS10)
T1 sequence (Q9Z2L0 with tags, fused parts or gaps limits assumed): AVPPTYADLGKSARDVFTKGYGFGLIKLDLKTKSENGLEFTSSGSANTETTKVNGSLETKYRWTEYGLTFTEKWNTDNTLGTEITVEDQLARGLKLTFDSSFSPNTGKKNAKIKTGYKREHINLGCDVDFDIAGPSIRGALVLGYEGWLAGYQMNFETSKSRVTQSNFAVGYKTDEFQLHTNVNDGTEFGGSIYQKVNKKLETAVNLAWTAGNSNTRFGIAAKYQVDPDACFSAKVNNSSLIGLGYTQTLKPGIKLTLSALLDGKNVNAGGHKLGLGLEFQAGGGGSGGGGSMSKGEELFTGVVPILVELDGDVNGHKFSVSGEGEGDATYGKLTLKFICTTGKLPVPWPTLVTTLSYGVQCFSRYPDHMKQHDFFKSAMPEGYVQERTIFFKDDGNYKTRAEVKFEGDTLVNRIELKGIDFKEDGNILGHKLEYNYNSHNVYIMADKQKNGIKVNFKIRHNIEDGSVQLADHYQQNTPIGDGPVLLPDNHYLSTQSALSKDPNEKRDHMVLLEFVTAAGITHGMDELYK
Description: BRET2 screening may be carried out as described in the art ([…] et al., (2010) Oligomerization of the mitochondrial protein voltage-dependent anion channel is coupled to the induction of apoptosis. Mol Cell Biol 30, 5698-5709). Plasmids encoding the fusion proteins rat(r)VDAC1-GFP2 and rVDAC1-luc were constructed using the BRET2 plasmids (Perkin Elmer, Waltham, Mass.). The rVDAC1 gene was cloned into BamHI and HindIII sites of the BRET2 plasmids (N2 variants) and amplified using the forward primer [NT] and the reverse primer [NT]. […] The cells were transfected using calcium phosphate method. Transfections were carried out with 0.2 μg of a plasmid coding for rVDAC1-Rluc and with 0.8 μg of a plasmid coding for rVDAC1-GFP2. As a negative control, cells were transfected with plasmids encoding for rVDAC1-Rluc (0.2 μg DNA) and GFP2 (0.8 μg). In another control (control cells), cells were also transfected with a plasmid encoding for rVDAC1-luc (0.2 μg) and plasmid pcDNA4/TO (0.8 μg). The BRET2 signal represents the ratio of the GFP2 fluorescence, measured at its emission wavelength (510 nm), over the light intensity (luminescence) emitted at 395 nm. All measurements were performed using the Infinite 200 ELISA reader (Tecan). BRET2 signals were defined as GFP2/Rluc intensity ratio and calculated as follows: DNA encoding fusion proteins rVDAC1-Rluc (in which RLuc was connected to rVDAC1 at the C terminal position through a linker (GGGS)) and rVDAC1-GFP2 (in which the GFP2 was fused to the rVDAC1 C terminus) was cloned into BRET2 vectors. rVDAC1-GFP2 and rVDAC1-Rluc were expressed in T-REx-293 cells stably expressing shRNA-hVDAC1 and a low level of endogenous hVDAC1 (referred to as T-REx-pS10 cells) hVDAC1-shRNA, being specific to human VDAC1, allowed the expression of rVDAC1 and decreased the participation of endogenous hVDAC1 in oligomerization, thereby enhancing the BRET2 signal. rVDAC1-GFP2 and rVDAC1-Rluc expression levels were correlated with the amount of plasmids used. […] Following incubation, cells were harvested using trypsin, washed twice with PBS by centrifugation at 1000×g, 5 min, resuspended in 200 μl of PBS and divided between two wells of a 96-well clear-bottom plate (Grenier). […] The screening was conducted using BRET2 assay as described above. […] After treatment, the medium was removed and assayed for BRET2 signals as described above. Liquid handling was done with the Tecan (Männedorf, Switzerland) Freedom 150 Robotic & MCA Liquid Handling System, while luciferase luminescence and fluorescence readings were obtained a robot-integrated Tecan Infinite M1000 reader. Method A was used for screening of VDAC1 oligomerization inhibitors. […] Table 2 provides a summary of BRET2-based screen results of the anti-VDAC1 oligomerization activity of compounds from the NCI library. Results are presented as percent inhibition of the BRET2 signal induced by the indicated pro-apoptotic agent.

Structure (SMILES) | cell death as induced by selenite [1] | BRET2, % of inhibition, As2O3 [2] [%] | BRET2, % of inhibition, STS [2] [%] | BRET2, % of inhibition, Selenite [2] [%]
O=C(O)CN1CN(c2ccccc2)C2(CCN(Cc3cccc4ccccc34)CC2)C1=O [Formula 11] | inhibited | – | – | –
CCOc1ccc(/C=C2\CCc3ccccc3C2=O)cc1 [NSC 252172] | – | 83.1 | 44.1 | 50
O=C(Oc1ccc(NC(=O)c2cc3c(cc2Br)OCO3)cc1)c1ccccc1 [NSC 268487] | – | 86.7 | 0 | 69.4
Nc1cc2c3c(cccc3c1)C(=O)N(CCN1CCCC1)C2=O [NSC 308849] | – | 99.5 | 0 | 0
CCN(CC)Cc1cc2[nH]c3c4ccc(Cl)cc4ncc3c2cc1OC [NSC 317605] | – | 46 | 0.3 | 52
Cc1ccc(NC(=O)Nc2nc3ccccc3s2)cc1NC(=O)Nc1nc2ccccc2s1 [NSC 319990] | – | 96.2 | 22 | 43.2
Clc1ccc(-c2nc(-c3cc4cc(Cl)ccc4o3)cs2)cc1 [NSC 321502] | – | 67.3 | 22.4 | 46.5
O=C(c1cccnc1)c1cc(-c2ccccn2)c(=O)n2ccccc12 [NSC 324623] | – | 78 | 0 | 16.3
O=C(Nc1ccc(Cl)c([N+](=O)[O-])c1)Nc1nc2ccccc2s1 [NSC 329249] | – | 82.8 | 12.1 | 22.4
Nc1nc(Nc2ccccc2)n[nH]1 [NSC 331208] | – | 86.4 | 0 | 28.3
O=C(Nc1ccccc1-c1ccccc1)C(=O)Nc1ccccc1-c1ccccc1 [NSC 338042] | – | 44.7 | 0 | 80.2
COC(=O)C1(C)Cc2cc(OC(C)=O)c(OC(C)=O)cc2N1 (stereo not shown) [NSC 341956] | – | 51.5 | 0 | 24
CCOc1cccc(/C=C2\NC(=S)N(c3ccccc3)C2=O)c1O [NSC 343966] | – | 39.4 | 0 | 20.1
COc1ccc(C2OC3=C(Nc4cc(C)c(C)cc4N3)C2=O)cc1 (stereo not shown) [NSC 372275] | – | 72.5 | 28.5 | 46.5
O=[N+]([O-])c1ccc(-c2ncc(-c3ccc(Br)cc3)o2)cc1 [NSC 372767] | – | 77.3 | 0 | 26.6
C=CCNC(=O)c1ccc(OC)cc1 [NSC 404057] | – | 74.6 | 0 | 37.1
O=C(Nc1ccc(Cl)c(Cl)c1)Nc1ccccc1O [NSC 522131] | – | 86.8 | 0 | 47.6
O=C(Nc1ccc(Br)c2ccccc12)c1ccc2ccccc2c1O [NSC 601359] | – | 97.7 | 46 | 74.4
c1ccc2c(c1)[nH]c1c3ccccc3sc21 [NSC 605333] | – | 63.7 | 0 | 16
CC(=O)N1C=Cc2c(c(C)c3c([nH]c4ccccc43)c2C)C1 [NSC 657149] | – | 88.3 | 0 | 25.3
CN(C)c1cccc(/C=C(\C#N)c2ccccc2)c1 [NSC 667251] | – | 77.5 | 1.4 | 0
COC(=NC(C)C)NC(C)C [NSC 672441] | – | 69.6 | 0 | 41.8
CN(C)c1ccc(N=Nc2cccc3ccoc23)cc1 [NSC 680515] | – | 87.8 | 33.4 | 66.3
